Assay results as given in US6833353B1, “Use of immunosuppressants for MMP mediated diseases” (Fujisawa Pharmaceutical Co., Ltd., priority 1998, dated 2004).
Marks after values point to notes of the source that are not given here.

How the values were obtained:
Assay type in all cases: in vivo, Lewis rats
cartilage degradation = test: Cartilage degradation in cotton-wrapped cartilage implant model (hydroxyproline content of implanted cartilage)
collagenase = test: Collagenolytic activity in granulomatous tissue extract, implant model; conditions: day 14
Description: (§1) Bone and excess tissue overlying the cartilage was removed under sterile conditions, in an airflow hood. The septum was washed in 70% ethanol before the cartilage was cut to a weight of 40×2mg. The cartilages were wrapped tightly in sterile cotton squares and soaked in 0.1 ml of a 10 mg/ml homogenized suspension of heat-killed Mycobacterium tuberculosis H37RA (Difco) in saline. Eight cartilages were stored in −20° C., these were to measure the levels of collagen in non-implanted cartilages.
(§2) Eight weeks old female Lewis rats were anaesthetized using halothane. The stomach area was shaved and swabbed with ethanol. […]
(§3) The granulomatous tissues were homogenized in 1 ml of 50 mM Tris, pH 7.5 containing 5 mM CaCl2, 0.1% Triton X-100 and 0.02% NaN3) After centrifugation of the extract at 15000 rpm for 10 min to remove debris, the supernatant was assayed for collagenolytic activity, gelatinolytic activity, tumor necrosis factor-α (TNF-α) level and Interferon-γ (IFN-γ) level. Collagenolytic and gelatinolytic activities in the extracts were measured using commercial assay kits (YAGAI, Japan). Cytokines levels were also measured using ELISA kits (Cosmo Bio, Japan). The protein contents in the extracts was determined using the method of Lowry.
(§4) Data is expressed as mean±SEM. The significance of differences was determined by Dunnett's multiple comparison test (*p<0.05, **p<0.01).

gelatinase = test: Gelatinolytic activity in granulomatous tissue extract, implant model; conditions: day 14
Description: as §1, §2, §3, §4

TNF-α = TNF-α level in granulomatous tissue extract (ELISA), implant model; conditions: day 14
Description: as §1, §2, §3, §4

IFN-γ = IFN-γ level in granulomatous tissue extract (ELISA), implant model; conditions: day 14
Description: as §1, §2, §3, §4

`C=CC[C@@H]1/C=C(\C)C[C@H](C)C[C@H](OC)[C@H]2O[C@@](O)(C(=O)C(=O)N3CCCC[C@H]3C(=O)O[C@H](/C(C)=C/[C@@H]3CC[C@@H](O)[C@H](OC)C3)[C@H](C)[C@@H](O)CC1=O)[C@H](C)C[C@@H]2OC` [FK506, 17-allyl-1,14-dihydroxy-12-[2-(4-hydroxy-3-methoxycyclohexyl)-1-methylvinyl]-23,25-dimethoxy-13,19,21,27-tetramethyl-11,28-dioxa-4-azatricyclo[22.3.1.0^4,9] octacos-18-ene-2,3,10,16-tetraone] was tested. Which “Recovery (%) of Hydroxyproline” value (cartilage degradation; 3.2 mg/kg po once daily, 14 days, implanted bovine nasal cartilage, rat) did it give?
Its value is 61.9** %.

What about the “inhibition of the decrease of hydroxyproline contents in cartilage” value (cartilage degradation; 3.2 mg/kg po, uid, rat implant model) of the same compound?
The value was 62%.

And the “inhibition (%) collagenase” value (collagenase; 1.0 mg/kg po once daily)?
Its value is 7.7%.

And the “inhibition (%) collagenase” value (collagenase; 3.2 mg/kg po once daily)?
Its value is 29.8%.

What about the “inhibition (%) gelatinase” value (gelatinase; 1.0 mg/kg po once daily) of the same compound?
Its value is 67.9* %.

What about the “inhibition (%) gelatinase” value (gelatinase; 3.2 mg/kg po once daily) of the same compound?
The value was 82.1** %.

And the “inhibition (%) TNF-α” value (TNF-α; 1.0 mg/kg po once daily)?
The value was 43.9** %.

What about the “inhibition (%) TNF-α” value (TNF-α; 3.2 mg/kg po once daily) of the same compound?
The value was 56.6** %.

And the “inhibition (%) IFN-γ” value (IFN-γ; 1.0 mg/kg po once daily)?
Its value is 58.1%.

What about the “inhibition (%) IFN-γ” value (IFN-γ; 3.2 mg/kg po once daily) of the same compound?
Its value is 73.4* %.
